The values that follow come from BindingDB's records for patent US10544113 (National Health Research Institute; Regents of the …, 2020).

Broadly, the EC50 is the concentration at which the effect is half-maximal.

In this assay the target is Mu-type opioid receptor (Homo sapiens, UniProt P35372). Description: FLIPR Calcium Assay. As for the experimental part: One day before the assay, CORNING black with clear flat bottom 96-well assay plates were coated with a 0.1 mg/mL Poly-L-Lysine solution. CHO-K1/MOR/Gα15 cells were suspended in the F12 medium and plated at a density of 8×10^4 cells/well in 200 μL medium. Cells were incubated in a humidified atmosphere of 10% CO2 at 37° C. overnight so as to reach an 80-90% confluent cell monolayer before assay. At the day of assay, 150 μL medium/well was removed from plate. To each well, 50 μL FLIPR calcium assay reagent dissolved in 1× assay buffer (HBSS: KCl 5 mM, KH2PO4 0.3 mM, NaCl 138 mM, NaHCO3 4 mM, Na2HPO4 0.3 mM, d-glucose 5.6 mM, with additional 20 mM HEPES and 13 mM CaCl2, pH 7.4), with 2.5 mM probenecid was added and the plate was incubated at 37° C. for 1 h. Compounds and other reagents were dissolved in the assay buffer. Using a FlexStationIII (Molecular Devices Corp.), the [Ca2+]i fluorescence increases after robotic injections of compounds or other reagents were monitored every 1.52 s interval with excitation wavelength at 485 nm and with emission wavelength at 525 nm. The [Ca2+]i fluorescence was measured up to 90 s after agonist injection.
Sequence of Mu-type opioid receptor (P35372 whole entry): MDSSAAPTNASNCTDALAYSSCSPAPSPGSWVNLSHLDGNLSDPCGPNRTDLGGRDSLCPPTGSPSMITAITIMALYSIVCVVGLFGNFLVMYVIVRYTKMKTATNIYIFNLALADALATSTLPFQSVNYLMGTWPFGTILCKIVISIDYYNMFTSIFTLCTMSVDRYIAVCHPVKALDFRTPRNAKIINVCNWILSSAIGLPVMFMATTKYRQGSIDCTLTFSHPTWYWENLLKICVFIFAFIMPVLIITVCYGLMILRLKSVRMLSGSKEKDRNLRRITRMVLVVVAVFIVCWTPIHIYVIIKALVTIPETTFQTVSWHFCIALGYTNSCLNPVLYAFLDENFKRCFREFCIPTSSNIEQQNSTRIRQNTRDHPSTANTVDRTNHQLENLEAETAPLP
`COc1ccccc1N1C(=O)CSC1c1cccc(F)c1` (stereo not drawn) [US10544113, No. 1]: the EC50 amounted to 12.4 µM.

Regarding `COc1ccccc1N1C(=O)CSC1c1ccc(F)cc1` (stereo not drawn) [US10544113, No. 2], the half-maximal effective concentration (EC50) was 19 µM.

Turning to `COc1ccc(F)cc1N1C(=O)CSC1c1ccc(F)c(F)c1` (stereo not drawn) [US10544113, No. 4], the EC50 was determined as 3.3 µM.

For the molecule `COc1ccc(F)cc1N1C(=O)CSC1c1cccc(F)c1` (stereo not drawn) [US10544113, No. 5], the EC50 was found to be 5.2 µM.

Consider `COc1ccc(F)cc1N1C(=O)CSC1c1ccc(F)cc1` (stereo not drawn) [US10544113, No. 6], for which the EC50 is 3.9 µM.

On to `COc1cc(N2C(=O)CSC2c2ccc(F)cc2)cc(OC)c1OC` (stereo not drawn) [US10544113, No. 16], for which the EC50 came to 8.3 µM.

`Cc1cccc(F)c1N1C(=O)CSC1c1ccc(F)cc1` (stereo not drawn) [US10544113, No. 108]: the EC50 was 3.3 µM.

For the molecule `Cc1cc(C(=O)OCCCc2ccccc2)ccc1N1C(=O)CSC1c1ccc(F)cc1` (stereo not drawn) [US10544113, No. 253], the EC50 worked out at 11.2 µM.

Take `COCCOCCOC(=O)c1ccc(N2C(=O)CSC2c2ccc(F)cc2)c(C)c1` (stereo not drawn) [US10544113, No. 280]: the EC50 came to 7.1 µM.

With `Cc1cc(C(=O)OCCN2CCCC2)ccc1N1C(=O)CSC1c1ccc(F)cc1` (stereo not drawn) [US10544113, No. 294], the EC50 stood at 2.9 µM.

For the molecule `COCCCNC(=O)c1ccc(N2C(=O)CSC2c2ccc(F)cc2)c(C)c1` (stereo not drawn) [US10544113, No. 343], the 50% effective concentration (EC50) came to 3.7 µM.

For `Cc1cc(C(=O)NCCN2CCOCC2)ccc1N1C(=O)CSC1c1ccc(F)cc1` (stereo not drawn) [US10544113, No. 344], the EC50 was determined as 7 µM.

For the molecule `Cc1cc(C(=O)NCCc2ccccc2Cl)ccc1N1C(=O)CSC1c1ccc(F)cc1` (stereo not drawn) [US10544113, No. 384], the EC50 stood at 6.6 µM.
